Experiments:
Gambiae Complex = conditions: ID 100156; F0, larval collection, 5/2009-4/2010, Chano, Ethiopia; WHO Bioassay 1998; ref Massebo F et al. Parasites Vectors. 2013;6; cited from earlier work
Ae. aegypti = test: WHO adult susceptibility test on field samples, Ae. aegypti; format: in vivo, Aedes aegypti; conditions: standard diagnostic doses
Excerpt: The analyses conducted using data from An. gambiae (s.l.) samples were repeated using data from the An. funestus subgroup, An. arabiensis, An. coluzzii, An. funestus and An. gambiae samples (Additional file 2). The same approach was also used for susceptibility test data from Aedes albopictus and Ae. aegypti to investigate whether the same relationships could be detected in these vectors of arboviruses, as detailed in Additional file 3.
Additional File 3: Cross-resistance to pyrethroids within wild populations of Aedes vectors […]
If structural diversity within the pyrethroids is also associated with divergence in resistance within the Aedes vectors of arboviruses, this would lend weight to the findings for malaria vectors presented in the main manusc ript. Like the Anopheles vectors, target-site mutations and metabolic resistance are thought to be the main resistance mechanisms in Aedes mosquitoes. At least ten mutations in the Aedes aegypti Vgsc gene have been identified and the most widespread mutation, […]
mutations and is also associated with DDT resistance. More recently, the V1016G mutation has been found in Ae. albopictus in Viet Nam and Italy, and both this allele and the F1534C and F1534S […]
expression of cytochrome P450s has also been implicated in pyrethroid resistance within Aedes mosquitoes and there is evidence that metabolic resistance can confer cross -resistance to multiple pyrethroids. For example, over-expression of CYP9J28 is associated with metabolic resistance to […]
target site- and P450-mediated resistance in Ae. aegypti strains found variation in resistance to seven pyrethroids and hypothesised that some patterns of resistance could be linked to structural differences, but also noted that general conclusions are challenging to make without a greater number of compounds with a single modification to compare. No studies of structure activity relationships using a wide range of pyrethroids and P450s from Aedes mosquitoes have been conducted to-date, but data on resistance in wild populations are available. A wider range of pyrethroids are more typically tested by studies of resistance in Aedes vectors, compared to Anopheles vectors, although these studies are also more varied in terms of diagnostic dose, bioass ay method and life cycle stage, making comparisons across studies difficult. Here we selected studies that used a common experimental design and investigated correlations in resistance to pairs of pyrethroids mirroring part of the work on Anopheles vectors presented in the main manuscript.
We identified all instances within a public insecticide resistance database where an Aedes field sample had been subdivided among tests for different pyrethroids. We then identified the most commonly used bioassay type across the new pyrethroid dataset, which was the WHO adult susceptibility test as described for malaria vectors, and the most commonly used diagnostic dose for […]
each compound (Table S2). […]
removed. Paired results were then extracted, and the mean values for the Pearson’s correlation coefficient were calculated for each pyrethroid pair using 1,000 bootstaps in SPSS Statistics v25.
Table S5. Diagnostic doses and data volumes for each pyrethroid.
Pyrethroid Most common dose Number of data points
The number of data points available for each pyrethroid from an Ae. aegypti sample that was used to test at least one other pyrethroid, using standard WHO susceptibility tests and standard diagnostic doses, is given.

Anopheles sinensis = tested on: Anopheles sinensis; design: method as in PMID 24159535; conditions: resistance ratios using LC50 values from a susceptible strain; most susceptible to bifenthrin, cyfluthrin and etofenprox, in that order; ref [55]; cited from earlier work
Helicoverpa armigera = tested on: Helicoverpa armigera; design: method as in PMID 17685437; conditions: pyrethroids with a polyfluorobenzyl group instead of the phenoxybenzyl group; ref [48]; cited from earlier work
[1] = tested on: An. funestus strain, FUMOZ-R; design: method as in PMID 26930058; conditions: strain with upregulated P450 levels without any target-site mutations; ref [47]; cited from earlier work

## CC1(C)C(C=C(Cl)Cl)C1C(=O)OC(C#N)c1ccc(F)c(Oc2ccccc2)c1 (stereo not drawn) [cyfluthrin]
Gambiae Complex
  mortality: 50
Ae. aegypti; Pair 2 cyfluthrin vs etofenprox, N 22 paired Ae. aegypti samples
  Mean percent mortality (SE): 87.78 (3.56) percent
Ae. aegypti; Pair 5 permethrin vs cyfluthrin, N 79 paired Ae. aegypti samples
  Mean percent mortality (SE): 89.27 (1.61) percent
Ae. aegypti; Pair 7 λ-cyhalothrin vs cyfluthrin, N 25 paired Ae. aegypti samples
  Mean percent mortality (SE): 85.01 (3.81) percent
Ae. aegypti; Pair 10 deltamethrin vs cyfluthrin, N 72 paired Ae. aegypti samples
  Mean percent mortality (SE): 88.58 (1.73) percent
Anopheles sinensis
  susceptibility of larvae, rank in words: most susceptible

## CC1(C)[C@H](C=C(Cl)Cl)[C@H]1C(=O)OCc1c(F)c(F)cc(F)c1F [transfluthrin]
Helicoverpa armigera
  effect on cross-resistance, in words: overcame most of this resistance
[1]
  effectiveness with or without piperonyl butoxide (PBO), in words: effective in the absence of the generic P450 inhibitor

## Cc1c(F)c(F)c(COC(=O)[C@@H]2[C@H](/C=C(\Cl)C(F)(F)F)C2(C)C)c(F)c1F (racemic) [tefluthrin]
Helicoverpa armigera
  effect on cross-resistance, in words: overcame most of this resistance
